Results from patent US10556907B2 (AbbVie Inc., priority 2015, dated 2020).
Where a name gives a salt, the structure may show the parent alone.

Columns and labels:
Assay in all cases: Method 1: intracellular Ca2+ release (FLIPR, Calcium 5) in recombinant CHO-K1 cells
Type in all cases: cell-based
[1] = biological target: T1, human S1PR3 receptor (Homo sapiens, UniProt Q99500); settings: (1): determined with method 1; read-out: S1P3 EC50
T1 construct: host or cells: CHO-K1
Procedure, shortened: (§1)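 Agonist EC50 values come from nonlinear fits of FLIPR Ca2+ fluorescence, normalized to the phospho-fingolimod reference curve. Recombinant CHO-K1 (receptor plus Gq/i5, aequorin) dye-loaded 1 h at 37° C in pH 7.4 Hepes/probenecid/BSA buffer. Antagonist mode: 10 min preincubation before phospho-fingolimod at EC80.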

[2] = biological target: T2, human S1PR5 receptor (Homo sapiens, UniProt Q9H228); settings: agonist potency, determined with method 1 (symbols A-D); read-out: S1P5 EC50 range
T2 construct: host or cells: CHO-K1
T2 sequence (Q9H228 whole entry): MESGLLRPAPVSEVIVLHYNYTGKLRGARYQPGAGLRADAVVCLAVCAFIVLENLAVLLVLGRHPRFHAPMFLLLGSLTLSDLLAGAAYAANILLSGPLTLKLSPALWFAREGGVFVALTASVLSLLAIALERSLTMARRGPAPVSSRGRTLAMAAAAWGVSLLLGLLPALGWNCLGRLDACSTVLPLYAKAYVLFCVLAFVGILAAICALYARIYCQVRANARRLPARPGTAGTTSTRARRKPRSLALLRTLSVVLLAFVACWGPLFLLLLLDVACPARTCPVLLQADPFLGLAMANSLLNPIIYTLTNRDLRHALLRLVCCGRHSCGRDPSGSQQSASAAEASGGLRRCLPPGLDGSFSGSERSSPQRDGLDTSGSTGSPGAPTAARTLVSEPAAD
Procedure, shortened: as §1

[3] = biological target: T3, human S1PR4 receptor (Homo sapiens, UniProt O95977); settings: (1): determined with method 1; read-out: S1P4 EC50
T3 construct: host or cells: CHO-K1
T3 sequence (O95977 1-384): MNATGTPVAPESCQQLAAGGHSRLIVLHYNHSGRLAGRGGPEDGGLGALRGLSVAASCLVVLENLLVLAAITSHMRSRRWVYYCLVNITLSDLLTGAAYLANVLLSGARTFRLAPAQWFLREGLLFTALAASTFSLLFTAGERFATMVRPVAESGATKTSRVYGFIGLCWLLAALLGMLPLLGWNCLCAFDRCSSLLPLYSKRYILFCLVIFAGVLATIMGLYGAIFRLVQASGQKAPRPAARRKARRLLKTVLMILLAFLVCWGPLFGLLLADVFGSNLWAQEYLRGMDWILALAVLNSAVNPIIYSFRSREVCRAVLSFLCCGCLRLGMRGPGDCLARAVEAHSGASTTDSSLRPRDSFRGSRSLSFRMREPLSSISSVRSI
Procedure, shortened: as §1

[4] = biological target: T4, human S1PR1 receptor (Homo sapiens, UniProt P21453); settings: (1): determined with method 1; read-out: S1P1 EC50
T4 construct: host or cells: CHO-K1
T4 sequence (P21453 whole entry): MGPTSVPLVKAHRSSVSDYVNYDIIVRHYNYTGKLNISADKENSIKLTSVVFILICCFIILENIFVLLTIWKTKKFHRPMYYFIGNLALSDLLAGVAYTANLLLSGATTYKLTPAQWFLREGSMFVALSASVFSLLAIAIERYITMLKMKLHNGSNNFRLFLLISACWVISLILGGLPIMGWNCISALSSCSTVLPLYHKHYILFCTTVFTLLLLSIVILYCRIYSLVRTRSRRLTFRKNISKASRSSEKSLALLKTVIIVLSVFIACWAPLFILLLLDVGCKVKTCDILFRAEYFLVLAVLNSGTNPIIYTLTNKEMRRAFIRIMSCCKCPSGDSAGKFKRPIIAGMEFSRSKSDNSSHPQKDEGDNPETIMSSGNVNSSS
Procedure, shortened: as §1

T1 sequence (Q99500 whole entry): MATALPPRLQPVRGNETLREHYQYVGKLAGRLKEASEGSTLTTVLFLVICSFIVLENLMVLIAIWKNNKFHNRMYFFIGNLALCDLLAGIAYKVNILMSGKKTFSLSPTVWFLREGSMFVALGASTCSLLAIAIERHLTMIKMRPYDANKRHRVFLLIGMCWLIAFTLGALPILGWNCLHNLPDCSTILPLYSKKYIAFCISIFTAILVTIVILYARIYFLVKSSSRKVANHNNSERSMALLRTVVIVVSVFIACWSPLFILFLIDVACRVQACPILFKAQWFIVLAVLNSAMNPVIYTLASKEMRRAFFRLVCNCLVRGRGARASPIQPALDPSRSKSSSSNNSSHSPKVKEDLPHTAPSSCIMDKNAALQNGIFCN

SMILES | EC50 [1] [nM] | EC50 [2] [nM] | EC50 [3] [nM] | EC50 [4] [nM]
O=C(O)CCN1CCc2cc(OCc3c(Cl)cccc3Cl)ncc2C1 [Compound 219, 3-(6-((2,6-dichlorobenzyl)oxy)-3,4-dihydro-2,7-naphthyridin-2(1H)-yl)propanoic acid hydrochloride] | > 1000 | 100 to 1000 | > 1000 | > 1000
CC(CC(=O)O)N1CCc2nc(-c3ccc(OCc4ccc(Cl)c(Cl)c4)cc3)ncc2C1 (stereo not shown) [Compound 45, 3-(2-(4-((3,4-dichlorobenzyl)oxy)phenyl)-7,8-dihydropyrido[4,3-d]pyrimidin-6(5H)-yl)butanoic acid] | > 1000 | 10 to 100 | > 1000 | > 1000
Cc1c(COc2ccc(-c3ncc4c(n3)CCN(CC(C)CC(=O)O)C4)c(F)c2)cccc1C(F)(F)F (stereo not shown) [Compound 241, 4-[2-[2-fluoro-4-[[2-methyl-3-(trifluoromethyl)phenyl]methoxy]phenyl]-7,8-dihydro-5H-pyrido[4,3-d]pyrimidin-6-yl]-3-methyl-butanoic acid 2,2,2-trifluoroacetic acid salt] | > 1000 | < 10 | > 1000 | > 1000
CC(C)c1ccc(C#Cc2ncc3c(n2)CCN(C2CC(C(=O)O)C2)C3)cc1 (stereo not shown) [Compound 58, 3-(2-((4-isopropylphenyl)ethynyl)-7,8-dihydropyrido[4,3-d]pyrimidin-6(5H)-yl)cyclobutanecarboxylic acid] | > 1000 | 1000 to 10000 | > 1000 | > 1000
Cc1ccc(COc2ccc(-c3ncc4c(n3)CCN(CC(C)CC(=O)O)C4)cc2)cc1 (stereo not shown) [Compound 248, 3-methyl-4-(2-(4-((4-methylbenzyl)oxy)phenyl)-7,8-dihydropyrido[4,3-d]pyrimidin-6(5H)-yl)butanoic acid] | > 1000 | < 10 | > 1000 | < 1000
CC(CC(=O)O)CN1CCc2nc(-c3ccc(OCc4cccc(Cl)c4)cc3)ncc2C1 (stereo not shown) [Compound 22, 4-(2-(4-((3-chlorobenzyl)oxy)phenyl)-7,8-dihydropyrido[4,3-d]pyrimidin-6(5H)-yl)-3-methylbutanoic acid] | > 1000 | < 10 | > 1000 | > 1000
O=C(O)CCN1CCc2nc(-c3ccc(OCc4ccc(OC(F)F)cc4)cc3)ncc2C1 [Compound 83, 3-(2-(4-((4-(difluoromethoxy)benzyl)oxy)phenyl)-7,8-dihydropyrido[4,3-d]pyrimidin-6(5H)-yl)propanoic acid] | > 1000 | < 10 | > 1000 | > 1000
CC(CC(=O)O)CN1CCc2nc(-c3ccc(OCc4ccc(F)c(F)c4)cc3)ncc2C1 (stereo not shown) [Compound 228, 4-(2-(4-((3,4-difluorobenzyl)oxy)phenyl)-7,8-dihydropyrido[4,3-d]pyrimidin-6(5H)-yl)-3-methylbutanoic acid] | > 1000 | < 10 | > 1000 | > 1000
O=C(O)CCCN1CCc2nc(Cc3ccccc3)ncc2C1 [Compound 50, 4-(2-benzyl-7,8-dihydropyrido[4,3-d]pyrimidin-6(5H)-yl)butanoic acid] | > 1000 | 1000 to 10000 | > 1000 | > 1000
O=C(O)CCN1CCc2nc(-c3ccc(OCc4ccc(C(F)F)cc4)cc3)ccc2C1 [Compound 166, 3-(2-(4-((4-difluoromethylbenzyl)oxy)phenyl)-7,8-dihydro-1,6-naphthyridin-6(5H)-yl)propanoic acid] | > 1000 | < 10 | > 1000 | > 1000
O=C(O)CCN1CCc2nc(-c3ccc(OCc4ccccc4OC(F)(F)F)cc3)ccc2C1 [Compound 155, 3-(2-(4-((2-trifluoromethoxybenzyl)oxy)phenyl)-7,8-dihydro-1,6-naphthyridin-6(5H)-yl)propanoic acid] | > 1000 | < 10 | > 1000 | > 1000
Cc1ccccc1COc1ccc(-c2ncc3c(n2)CCN(CC(C)CC(=O)O)C3)cc1C (stereo not shown) [Compound 239] | > 1000 | < 10 | > 1000 | > 1000
C[C@@H](CC(=O)O)CN1CCc2nc(-c3ccc(C(F)(F)Cc4ccc(Cl)cc4)cc3)ncc2C1 (single isomer, unassigned) [Compound 266, 4-(2-(4-(2-(4-chlorophenyl)-1,1-difluoroethyl)phenyl)-7,8-dihydropyrido[4,3-d]pyrimidin-6(5H)-yl)-3-methylbutanoic acid] | > 1000 | 10 to 100 | > 1000 | > 1000
CCc1cccc(Cl)c1COc1ccc2c(n1)CCN(C1CC(C(=O)O)C1)C2 (stereo not shown) [Compound 118, 3-(2-((2-chloro-6-ethylbenzyl)oxy)-7,8-dihydro-1,6-naphthyridin-6(5H)-yl)cyclobutanecarboxylic acid] | > 1000 | < 10 | > 1000 | > 1000
CC(CCN1CCc2nc(-c3ccc(OCc4ccc(Cl)cc4)cc3)c(F)cc2C1)C(=O)O (stereo not shown) [Compound 181] | > 1000 | < 10 | > 1000 | < 1000
O=C(O)C1CC(N2CCc3nc(C#Cc4ccc(OCc5ccccc5)cc4)ncc3C2)C1 (stereo not shown) [Compound 59, 3-(2-((4-(benzyloxy)phenyl)ethynyl)-7,8-dihydropyrido[4,3-d]pyrimidin-6(5H)-yl)cyclobutanecarboxylic acid] | > 1000 | 1000 to 10000 | > 1000 | > 1000
O=C(O)CC1CC(N2CCc3nc(-c4ccc(OCc5ccc(Cl)cc5)cc4)ncc3C2)C1 (stereo not shown) [Compound 2, 2-(3-(2-(4-((4-chlorobenzyl)oxy)phenyl)-7,8-dihydropyrido[4,3-d]pyrimidin-6(5H)-yl)cyclobutyl)acetic acid] | > 1000 | 100 to 1000 | > 1000 | > 1000
CC(CC(=O)O)CN1CCc2nc(-c3ccc(OCc4ccc(C(F)(F)F)cc4)cc3)ncc2C1 (stereo not shown) [Compound 233, 3-methyl-4-(2-(4-((4-(trifluoromethyl)benzyl)oxy)phenyl)-7,8-dihydropyrido[4,3-d]pyrimidin-6(5H)-yl)butanoic acid] | > 1000 | < 10 | < 1000 | < 1000
O=C(O)CCN1CCc2nc(-c3ccc(OCc4ccccc4OC(F)F)cc3)ccc2C1 [Compound 163, 3-(2-(4-((2-difluoromethoxybenzyl)oxy)phenyl)-7,8-dihydro-1,6-naphthyridin-6(5H)-yl)propanoic acid] | > 1000 | < 10 | > 1000 | > 1000
O=C(O)CCN1CCc2nc(-c3ccc(OCc4ccccc4)cc3)cnc2C1 [Compound 177, 3-(2-(4-(benzyloxy)phenyl)-7,8-dihydropyrido[3,4-b]pyrazin-6(5H)-yl)propanoic acid] | > 1000 | < 10 | > 1000 | > 1000
CCc1cccc(Cl)c1COc1ccc(-c2ncc3c(n2)CCN(CC(C)C(=O)O)C3)cc1 (stereo not shown) [Compound 18, 3-(2-(4-((2-chloro-6-ethylbenzyl)oxy)phenyl)-7,8-dihydropyrido[4,3-d]pyrimidin-6(5H)-yl)-2-methylpropanoic acid] | > 1000 | 10 to 100 | < 1000 | > 1000
CC(CN1CCc2nc(-c3ccc(OCc4cc(Cl)cc(Cl)c4)cc3)ncc2C1)C(=O)O (single isomer, unassigned) [Compound 19, 3-(2-(4-((3,5-dichlorobenzyl)oxy)phenyl)-7,8-dihydropyrido[4,3-d]pyrimidin-6(5H)-yl)-2-methylpropanoic acid] | > 1000 | < 10 | > 1000 | > 1000
Cc1cc(-c2ncc3c(n2)CCN(CC(C)CC(=O)O)C3)ccc1OCc1ccc(Cl)cc1 (stereo not shown) [Compound 258, 4-(2-(4-((4-chlorobenzyl)oxy)-3-methylphenyl)-7,8-dihydropyrido[4,3-d]pyrimidin-6(5H)-yl)-3-methylbutanoic acid] | > 1000 | 10 to 100 | > 1000 | > 1000
Cc1ccc(COc2ccc(-c3ncc4c(n3)CCN(CC(C)CC(=O)O)C4)cc2)cc1C(F)(F)F (stereo not shown) [Compound 247, 3-methyl-4-[2-[4-[[4-methyl-3-(trifluoromethyl)phenyl]methoxy]phenyl]-7,8-dihydro-5H-pyrido[4,3-d]pyrimidin-6-yl]butanoic acid 2,2,2-trifluoroacetic acid salt] | > 1000 | < 10 | > 1000 | > 1000
O=C(O)CCN1CCc2nc(-c3ccc(OCc4cccc(Cl)c4)cc3)c(F)cc2C1 [Compound 189, 3-(2-(4-((3-chlorobenzyl)oxy)phenyl)-3-fluoro-7,8-dihydro-1,6-naphthyridin-6(5H)-yl)propanoic acid] | > 1000 | < 10 | > 1000 | > 1000
